Laboratory results: US12048768B2, “Gastro-resistant controlled release oral dosage forms” (Minerva Neurosciences, Inc., priority 2017, dated 2024)

Tests used:
[1] = Phase 2b study of MIN-101 in patients with schizophrenia (negative symptoms, cognitive function, CDSS); type: in vivo, human
Procedure: The oral dosage forms used in this Phase 2b study were the 32 mg MR tablet described in Example 1 below and an essentially identical 64 mg MR tablet.
Thus, in an aspect, administration of a gastro-resistant CR oral dosage form of the present disclosure to a patient with a diagnosis of schizophrenia is intended to improve cognitive function in the patient.
A secondary outcome of the phase 2b study of MIN-101 discussed above was patients' performance on the Calgary Depression Scale for Schizophrenia (CDSS) ADDINGTON D, ADDINGTON J, MATICKA-TYNDALE E. ASSESSING DEPRESSION IN S CHIZOPHRENIA: THE CALGARY DEPRESSION SCALE. BRITISH JOURNAL OF PSYCHIATRY SUPPLEMENT 1993; (22):39-44. The CDSS has little overlap with positive and negative symptoms and has become the recommended scale to assess the severity of depression in patients with schizophrenia. In the phase 2b study, the severity of symptoms as measured by the CDSS was reduced following treatment with 32 or 64 mg of MIN-101 compared to placebo. […] Thus, since the effects of MIN-101 on negative symptoms and depression symptoms in schizophrenia patients were largely independent of each other, MIN-101 has the potential to alleviate one or more depression symptoms in patients who are not schizophrenic.

[2] = as disclosed in U.S. Pat. No. 9,458,130; cited from earlier work
[3] = human, in vivo

## Cl.O.O.O=C(CN1CCC(CN2Cc3ccccc3C2=O)CC1)c1ccc(F)cc1 [MIN-101, 1H-Isoindol-1-one, 2-[[1-[2-(4-Fluorophenyl)-2-oxoethyl]-4-piperidinyl]methyl]-2,3-dihydro-, hydrochloride, hydrate (1:1:2)]
[1]; phase 2b study
  Cognitive function: improvement in cognitive function
[1]; phase 2b, 32 mg and 64 mg MR tablets
  Negative symptoms in patients with schizophrenia: rapid, statistically significant and clinically meaningful reductions in negative symptoms
[1]; phase 2b, 32 or 64 mg compared to placebo
  Severity of depression symptoms as measured by the CDSS: reduced
[2]
  QT prolongation in patients: has been observed
[3]
  Plasma levels of BFB-520 in CYP2D6 poor metabolizers: high plasma levels of BFB-520
